Results reported in patent US12037344B2, “NLRP3 modulators” (INNATE TUMOR IMMUNITY, INC., priority 2018, dated 2024).
Read-outs that look alike come from different tables or passages of the source.

Experiments:
TLR7 = target: T1, TLR7 (Homo sapiens, UniProt Q9NYK1); test: In vitro human TLR7 binding reporter assay (HEK-Blue, NF-kB/AP1-inducible SEAP); format: cell-based; settings: activity range class, read-out: TLR7 Agonist EC50
T1 construct: human HEK-Blue cells co-expressing a TLR7 or TLR8 gene
T1 sequence (Q9NYK1 27-1049): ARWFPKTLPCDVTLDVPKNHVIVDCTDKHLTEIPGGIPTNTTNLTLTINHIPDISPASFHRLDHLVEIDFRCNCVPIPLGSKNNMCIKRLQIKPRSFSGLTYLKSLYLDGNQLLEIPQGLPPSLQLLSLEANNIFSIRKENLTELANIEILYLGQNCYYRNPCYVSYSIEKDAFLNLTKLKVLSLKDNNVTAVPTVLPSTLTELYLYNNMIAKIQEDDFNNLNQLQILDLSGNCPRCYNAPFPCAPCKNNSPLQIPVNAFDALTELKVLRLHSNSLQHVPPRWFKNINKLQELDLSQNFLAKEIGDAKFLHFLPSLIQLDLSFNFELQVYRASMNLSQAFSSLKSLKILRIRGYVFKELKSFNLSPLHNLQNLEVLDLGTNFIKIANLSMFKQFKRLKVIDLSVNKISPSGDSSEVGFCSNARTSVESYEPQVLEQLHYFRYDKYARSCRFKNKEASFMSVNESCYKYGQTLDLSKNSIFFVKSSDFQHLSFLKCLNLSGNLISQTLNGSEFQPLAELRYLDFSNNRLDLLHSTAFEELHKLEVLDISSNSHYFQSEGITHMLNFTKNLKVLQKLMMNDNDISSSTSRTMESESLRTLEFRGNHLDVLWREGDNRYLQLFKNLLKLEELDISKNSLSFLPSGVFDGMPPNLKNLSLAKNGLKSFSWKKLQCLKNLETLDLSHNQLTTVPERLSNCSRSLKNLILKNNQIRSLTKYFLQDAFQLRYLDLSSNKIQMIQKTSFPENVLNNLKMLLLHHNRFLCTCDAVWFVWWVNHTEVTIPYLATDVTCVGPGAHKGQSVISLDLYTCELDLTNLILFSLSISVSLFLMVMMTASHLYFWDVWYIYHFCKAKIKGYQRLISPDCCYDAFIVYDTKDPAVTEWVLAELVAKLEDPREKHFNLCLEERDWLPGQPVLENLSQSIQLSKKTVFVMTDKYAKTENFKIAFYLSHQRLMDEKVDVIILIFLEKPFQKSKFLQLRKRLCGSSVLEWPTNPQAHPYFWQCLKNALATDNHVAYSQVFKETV
Procedure, shortened: (§1)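 Cells are seeded and grown for 24 h. Compounds or DMSO are then added and incubated 18 h at 37 °C. Quanti-Blue is added, and SEAP is read after thirty minutes. EC50 values are normalized, with RLU from 50 μM reference standard setting 100% Ymax.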

THP-1 cells = test: Measurement of IL-1β production, hTRF protocol (second alternative procedure), THP-1 cells; format: cell-based, human; settings: Homo sapiens
Procedure, shortened: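 Compounds, dilution series starting at a final 10 μM, were incubated 2 hours at 37° C with PMA-differentiated THP-1 cells (50 ng/ml overnight; 50,000 cells/well, 2% FBS RPMI). Released IL-1β quantified in supernatant by hTRF kit with 1:40 antibody dilution, 4° C overnight, 665/615 nm ratio.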

TLR8 = target: T2, TLR8 (Homo sapiens, UniProt Q9NR97); test: In vitro human TLR8 binding reporter assay (HEK-Blue, NF-kB/AP1-inducible SEAP); format: cell-based; settings: activity range class, read-out: TLR8 Agonist EC50
T2 construct: human HEK-Blue cells co-expressing a TLR7 or TLR8 gene
T2 sequence (Q9NR97 27-1041): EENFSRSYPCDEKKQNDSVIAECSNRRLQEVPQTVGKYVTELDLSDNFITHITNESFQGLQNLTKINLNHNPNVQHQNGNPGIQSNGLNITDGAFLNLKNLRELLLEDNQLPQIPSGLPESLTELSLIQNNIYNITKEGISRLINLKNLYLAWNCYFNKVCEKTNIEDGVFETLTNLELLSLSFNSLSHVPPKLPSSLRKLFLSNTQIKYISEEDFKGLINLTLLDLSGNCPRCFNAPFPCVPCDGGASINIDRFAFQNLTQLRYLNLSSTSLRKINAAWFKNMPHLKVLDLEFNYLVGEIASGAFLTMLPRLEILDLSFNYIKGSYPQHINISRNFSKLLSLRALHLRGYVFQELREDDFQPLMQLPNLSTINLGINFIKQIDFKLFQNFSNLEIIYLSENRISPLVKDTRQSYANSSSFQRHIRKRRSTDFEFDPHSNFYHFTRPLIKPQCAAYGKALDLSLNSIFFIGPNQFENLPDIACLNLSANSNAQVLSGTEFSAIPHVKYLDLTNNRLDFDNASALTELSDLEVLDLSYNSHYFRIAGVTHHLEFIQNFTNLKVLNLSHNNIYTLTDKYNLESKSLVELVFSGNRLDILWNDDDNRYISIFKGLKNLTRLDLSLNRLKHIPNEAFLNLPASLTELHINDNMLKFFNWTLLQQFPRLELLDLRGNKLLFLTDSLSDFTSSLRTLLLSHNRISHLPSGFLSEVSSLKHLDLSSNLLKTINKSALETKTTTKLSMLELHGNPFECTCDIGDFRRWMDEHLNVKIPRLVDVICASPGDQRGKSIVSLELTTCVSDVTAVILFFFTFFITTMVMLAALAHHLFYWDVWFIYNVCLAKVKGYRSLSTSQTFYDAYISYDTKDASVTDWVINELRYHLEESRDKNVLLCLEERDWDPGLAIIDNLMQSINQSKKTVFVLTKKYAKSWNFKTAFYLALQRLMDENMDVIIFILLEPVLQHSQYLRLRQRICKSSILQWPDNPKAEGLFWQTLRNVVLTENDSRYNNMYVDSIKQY
Procedure, shortened: as §1

[1] = THP-1, IL-1β production, human, read-out: NLRP3 hILIB EC50

| Compound | EC50 (TLR7) [µM] | EC50 (THP-1 cells; [1]) [µM] | EC50 (TLR8) [µM] | EC50 (THP-1 cells; THP-1, read-out: NLRP3 hILIB EC50) [µM] |
| --- | --- | --- | --- | --- |
| Nc1nc2cc(-c3cc[nH]n3)ccc2c2c1cnn2CC(F)F [Example 225] | > 100 | 0.2 | > 100 | – |
| Cc1cc(Cn2cc3c(N)nc4cc(-c5cc[nH]n5)ccc4c3n2)no1 [Example 226] | > 100 | 0.44 | > 100 | – |
| Nc1nc2cc(-c3cc[nH]n3)ccc2c2c1cnn2CCc1ccccn1 [Example 227] | > 100 | 1.81 | > 100 | – |
| COCCCn1ncc2c(N)nc3cc(-c4cc[nH]n4)ccc3c21 [Example 228] | > 100 | 0.3 | > 100 | – |
| Nc1nc2cc(-c3cc[nH]n3)ccc2c2nn(CC3CCCO3)cc12 (stereo not drawn) [Example 229] | > 100 | 0.08 | > 100 | – |
| Nc1nc2cc(-c3cc[nH]n3)ccc2c2c1cnn2CC1CCCO1 (stereo not drawn) [Example 230] | > 100 | 0.87 | > 100 | – |
| CN1CCOC(Cn2ncc3c(N)nc4cc(-c5cc[nH]n5)ccc4c32)C1 (stereo not drawn) [Example 231] | > 100 | 1.21 | > 100 | – |
| C[C@H](CO)Cn1ncc2c(N)nc3cc(-c4cc[nH]n4)ccc3c21 [Example 232] | > 100 | 1.87 | > 100 | – |
| Nc1nc2cc(-c3cc[nH]n3)ccc2c2c1cnn2CCOCCO [Example 233] | > 100 | 1.44 | > 100 | – |
| Nc1nc2cc(-c3cc[nH]n3)ccc2c2nn(CC(O)CO)cc12 (stereo not drawn) [Example 234] | > 100 | 0.56 | > 100 | – |
| Nc1nc2cc(-c3cc[nH]n3)ccc2c2c1cnn2CC(O)CO (stereo not drawn) [Example 235] | > 100 | 12.5 | > 100 | – |
| Nc1nc2cc(-c3cc[nH]n3)ccc2c2nn(C3CCOCC3)cc12 [Example 236] | > 100 | 0.79 | > 100 | – |
| Nc1nc2cc(-c3cc[nH]n3)ccc2c2c1cnn2C1CCOC1 (stereo not drawn) [Example 240] | > 100 | 0.62 | > 100 | – |
| Nc1nc2cc(-c3cc[nH]n3)ccc2c2nn(C3COC3)cc12 [Example 241] | > 100 | 0.46 | > 100 | – |
| Nc1nc2cc(-c3cc[nH]n3)ccc2c2c1cnn2C1COC1 [Example 242] | > 100 | 0.68 | > 100 | – |
| Cc1nnc(Cn2cc3c(N)nc4cc(-c5cc[nH]n5)ccc4c3n2)o1 [Example 243] | > 100 | 1.39 | > 100 | – |
| Cc1nnc(Cn2ncc3c(N)nc4cc(-c5cc[nH]n5)ccc4c32)o1 [Example 244] | > 100 | 1.8 | > 100 | – |
| Nc1nc2cc(-c3cc[nH]n3)ccc2c2nn(CC(O)C(F)(F)F)cc12 (stereo not drawn) [Example 245] | > 100 | 0.94 | > 100 | – |
| CC(CO)n1cc2c(N)nc3cc(-c4ccn[nH]4)ccc3c2n1 (stereo not drawn) [Example 253, 2-[4-amino-7-(1H-pyrazol-5-yl)-2H-pyrazolo[4,3-c]quinolin-2-yl]propan-1-ol] | > 100 | – | > 100 | 0.3 |

Continued, in another order:

| EC50 (TLR7) [µM] | EC50 (THP-1 cells; [1]) [µM] | EC50 (TLR8) [µM] | Compound | EC50 (THP-1 cells; THP-1, read-out: NLRP3 hILIB EC50) [µM] |
| --- | --- | --- | --- | --- |
| > 100 | 0.58 | > 100 | COC1CCC(n2cc3c(N)nc4cc(-c5cc[nH]n5)ccc4c3n2)C1 (stereo not drawn) [Example 246] | – |
| > 100 | 0.44 | > 100 | COCCn1cc2c(N)nc3cc(-n4cccn4)ccc3c2n1 [Example 247, 2-(2-methoxyethyl)-7-(1H-pyrazol-1-yl)-2H-pyrazolo[4,3-c]quinolin-4-amine] | – |
| > 100 | 0.65 | > 100 | COCCn1cc2c(N)nc3cc(-c4cccs4)ccc3c2n1 [Example 248, 2-(2-methoxyethyl)-7-(thiophen-2-yl)-2H-pyrazolo[4,3-c]quinolin-4-amine] | – |
| > 100 | 0.64 | > 100 | Nc1nc2cc(-n3cccn3)ccc2c2nn(CCO)cc12 [Example 249, 2-(4-amino-7-(1H-pyrazol-1-yl)-2H-pyrazolo[4,3-c]quinolin-2-yl)ethan-1-ol] | – |
| > 100 | 1.95 | > 100 | Nc1nc2cc(-n3cccn3)ccc2c2c1cnn2CCO [Example 250, 2-(4-amino-7-(1H-pyrazol-1-yl)-1H-pyrazolo[4,3-c]quinolin-1-yl)ethan-1-ol] | – |
| > 100 | 0.62 | > 100 | Nc1nc2cc(-n3cccn3)ccc2c2nn(CCCO)cc12 [Example 251, 3-(4-amino-7-(1H-pyrazol-1-yl)-2H-pyrazolo[4,3-c]quinolin-2-yl)propan-1-ol] | – |
| > 100 | 1.13 | > 100 | Nc1nc2cc(-n3cccn3)ccc2c2c1cnn2CCCO [Example 252, 3-(4-amino-7-(1H-pyrazol-1-yl)-1H-pyrazolo[4,3-c]quinolin-1-yl)propan-1-ol] | – |
| > 100 | 20.3 | > 100 | CC(=O)NC(C)Cn1cc2c(N)nc3cc(-c4ccn[nH]4)ccc3c2n1 (stereo not drawn) [Example 254] | – |
| > 100 | 10.9 | > 100 | Nc1nc2cc(-c3ccn[nH]3)ccc2c2nn(CC3COCCN3)cc12 (stereo not drawn) [Example 255] | – |
| > 100 | 0.53 | > 100 | CC(=O)NC(C)(C)Cn1cc2c(N)nc3cc(-c4ccn[nH]4)ccc3c2n1 [Example 256] | – |
| > 100 | 0.86 | > 100 | CC(N)Cn1cc2c(N)nc3cc(-c4ccn[nH]4)ccc3c2n1 (stereo not drawn) [Example 257] | – |
| > 100 | 1.78 | > 100 | CC(=O)N1CCCC1Cn1cc2c(N)nc3cc(-c4ccn[nH]4)ccc3c2n1 (stereo not drawn) [Example 258] | – |
| > 100 | 2.29 | > 100 | CC(=O)N(C)CCn1cc2c(N)nc3cc(-c4ccn[nH]4)ccc3c2n1 [Example 259] | – |
| > 100 | 5.76 | > 100 | Nc1nc2cc(-c3ccn[nH]3)ccc2c2nn(CCN3CCOCC3)cc12 [Example 260] | – |
| > 100 | 1.29 | > 100 | CN(C)CCn1cc2c(N)nc3cc(-c4ccn[nH]4)ccc3c2n1 [Example 261] | – |
| > 100 | 0.75 | > 100 | CC(C)(Cn1cc2c(N)nc3cc(-c4ccn[nH]4)ccc3c2n1)NC(=O)C1CCCO1 (stereo not drawn) [Example 262] | – |
